One series is described as follows: in vitro. The settings on record: for Papp: pig, PAMPA; for PAMPA-BBB Permeability Pe: porcine polar brain lipids, UPLC quantification. The protocol:
The assay was performed according to the method reported by Di et al. with slight modification. Commercial drugs, verapamil, and caffeine were used to validate the protocol. […] Each sample was analyzed with at least three independent experiments in three wells.

The target in the next series is T1, eqBuChE (Equus caballus, UniProt P81908).
T1 construct: butyrylcholinesterase (BuChE) from horse serum (C1057); purchased Sigma-Aldrich C1057; host or cells: horse serum
T1 sequence (P81908 whole entry): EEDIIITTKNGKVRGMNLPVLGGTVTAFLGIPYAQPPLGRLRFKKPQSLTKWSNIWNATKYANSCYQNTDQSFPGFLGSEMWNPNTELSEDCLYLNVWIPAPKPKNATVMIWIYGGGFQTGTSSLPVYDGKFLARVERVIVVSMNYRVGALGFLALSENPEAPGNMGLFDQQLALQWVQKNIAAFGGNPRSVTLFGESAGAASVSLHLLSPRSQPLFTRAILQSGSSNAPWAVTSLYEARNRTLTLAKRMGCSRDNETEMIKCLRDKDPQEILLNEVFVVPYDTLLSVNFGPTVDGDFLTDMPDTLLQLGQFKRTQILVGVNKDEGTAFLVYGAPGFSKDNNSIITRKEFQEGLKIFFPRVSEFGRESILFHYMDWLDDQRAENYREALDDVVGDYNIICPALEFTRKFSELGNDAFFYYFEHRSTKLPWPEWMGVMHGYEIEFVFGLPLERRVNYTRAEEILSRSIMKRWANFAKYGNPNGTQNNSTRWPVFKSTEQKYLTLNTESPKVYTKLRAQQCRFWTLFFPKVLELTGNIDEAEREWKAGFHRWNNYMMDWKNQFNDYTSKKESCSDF
Put plainly: biochemical. The settings on record: Table 1; preincubation 6 min, incubation 6 min, 37 °C; mean ± SD; read-out: IC50 BuChE. How it is done:
(§1) The abilities of synthesized 22 compounds to inhibit AChE and BuChE activity were determined following Ellman’s procedure using a Perkin Elmer Lambda 35 spectrophotometer with thermostated 1.00 cm quartz cells. AChE’s and BuChE’s stock solutions were diluted with 20 mM TRIS to give 1 unit per mL of enzymes’ activity. […] A 0.01 M DTNB solution was prepared with 0.1 M phosphate buffer (pH 7) containing 0.15% (w/v) sodium bicarbonate. A 0.1 M phosphate buffer (pH 8) was used for assay. pH was adjusted to 8.0 ± 0.1 by adding aliquots of concentrated HCl. Stock solutions (10 mM) of investigated compounds were prepared daily by dissolving solid compounds in DMSO. Diluted solutions were also prepared in DMSO.
(§2) Briefly, enzymes’ assays were prepared as follows. […] Thereafter, 20 μL of ASChI or BSChCI was added, after which the reaction was initiated. […] For the blank value, the addition of 20 μL of buffer replaced the enzyme solution while an addition of 7 μL of DMSO replaced the inhibitor solution. The control solution contained 7 μL of DMSO instead of the inhibitor. The screening test was performed at a 1 × 10^−5 M concentration, and the compounds with more than 50% of inhibition were further assayed using dilution series of up to eight increasing concentrations (10^−5 M to 10^−9 M). The inhibition potency was presented as the dependence on the relative enzyme activity (REA) as the function of the compound’s concentration. IC50 values were determined graphically from Hill curves using Origin 9 Microsoft Windows.

A further series concerns the target T2, eeAChE (Electrophorus electricus, UniProt O42275).
T2 construct: purchased Sigma-Aldrich C3389
The series is described as follows: biochemical. Format: biochemical. The conditions noted are these: for IC50: Table 1, mean ± SD; for Selectivity Index for AChE: IC50(BChE)/IC50(AChE). How it is done:
as §1, §2

Series [1] is described as follows: logP determination by UPLC. The class given is physicochemical. The conditions noted are these: reversed-phase ACQUITY UPLC BEH C18 column; UPLC method. The protocol: . The column used for logP determinations was ACQUITY UPLC BEH C18 column with the dimensions 1.7 μm × 100 mm × 2.1 mm (Waters). The measurements were performed in the isocratic mode. The eluent flow rate was 0.25 mL min^−1, and the injection volume was 5 μL. The mobile phase composition was a different percentage of acetonitrile and H2O (we ran a chromatogram for each compound with different eluent compositions and the acetonitrile fraction ranging from 64% to 91%). The wavelength of the optical detection was 256 nm, the retention times for every examined compound under certain experimental conditions were determined. At the beginning, the compound’s retention factor, k’, was determined for different percentages of acetonitrile in the mobile phases. The column’s dead time was determined by the injection of sodium bromide. After that, the retention factors for a pure aqueous eluent (log kw) were determined for the compounds with previously known logPo/w values as well as for the investigated compounds. […]

In series [2] the target is T3, AChE (Electrophorus electricus, UniProt O42275).
T3 construct: purchased Sigma-Aldrich C3389
T3 sequence (O42275 24-633): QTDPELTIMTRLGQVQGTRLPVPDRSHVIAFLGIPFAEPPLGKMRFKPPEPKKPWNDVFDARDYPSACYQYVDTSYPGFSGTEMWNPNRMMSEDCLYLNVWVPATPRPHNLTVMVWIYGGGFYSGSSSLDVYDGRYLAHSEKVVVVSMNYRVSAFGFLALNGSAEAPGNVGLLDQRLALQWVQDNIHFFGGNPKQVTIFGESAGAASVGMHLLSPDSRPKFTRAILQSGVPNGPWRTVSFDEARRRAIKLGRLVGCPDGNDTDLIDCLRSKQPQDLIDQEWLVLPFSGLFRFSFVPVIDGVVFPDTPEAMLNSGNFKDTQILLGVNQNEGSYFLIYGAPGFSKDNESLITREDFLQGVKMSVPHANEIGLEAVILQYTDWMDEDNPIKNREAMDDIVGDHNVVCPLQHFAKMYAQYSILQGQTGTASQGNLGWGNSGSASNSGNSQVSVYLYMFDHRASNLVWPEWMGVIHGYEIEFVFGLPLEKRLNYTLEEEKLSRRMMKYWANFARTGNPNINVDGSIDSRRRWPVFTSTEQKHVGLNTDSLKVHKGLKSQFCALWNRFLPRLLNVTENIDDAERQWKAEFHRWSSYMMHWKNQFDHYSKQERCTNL
The series is described as follows: Kinetic study of AChE inhibition (Lineweaver-Burk). Format: biochemical. The conditions noted are these: for Type of Inhibition (AChE): Lineweaver-Burk plot; for Ki: preincubation 6 min, incubation 2 min. How it is done:
(§3) Kinetic studies of ChE enzymes were also performed using the above-mentioned modified Ellman’s method. The preincubation time was 6 min, while the incubation time was 2 min. The type of enzyme inhibition was justified by the Lineweaver–Burk plot (double reciprocal plot) for selected inhibitor concentrations, and substrate concentrations ranged from 0.01 to 1 mM. The kinetic parameters Km, Vmax, and Ki were determined. Graphs were plotted using Origin9 for Microsoft Windows.

Series [3] deals with T3, AChE. The series is described as follows: Trp fluorescence-quenching titration of AChE. Format: binding. The conditions noted are these: 5 IU/mL AChE. How it is done:
(§4) Fluorescence titration studies were conducted using the Agilent Cary Eclipse fluorescence spectrophotometer. Fluorescence-quenching spectra were recorded within the wavelength range of 320–450 nm, with an excitation at 295 nm at room temperature. Excitation and emission slit widths were both set at 5 nm, and the scanning rate was fixed at 9600 nm/min. The concentration of enzymes was 5 IU/mL. The incubation time between each addition of THIQ aliquots was 6 min.

For series [4], the target named is T4, BuChE (Equus caballus, UniProt P81908).
T4 construct: butyrylcholinesterase (BuChE) from horse serum (C1057); purchased Sigma-Aldrich C1057; host or cells: horse serum
T4 sequence (P81908 whole entry): as the sequence (P81908 whole entry) above
The series is described as follows: Trp fluorescence titration of BuChE. The class given is binding. The settings on record: 5 IU/mL BuChE. The protocol: as §4

Series [5] concerns the target T4, BuChE. Put plainly: Kinetic study of BuChE inhibition (Lineweaver-Burk). The class given is biochemical. The protocol: as §3
The mark [6] stands for this setting: preincubation 6 min, incubation 6 min, 37 °C.
The mark [7] stands for this setting: excitation 295 nm, room temperature.

The structures appear in SMILES notation. Entries after “also recorded” stand apart in the source; their conditions may differ.

T2 sequence (O42275 24-633): as the sequence (O42275 24-633) above

Regarding `Cn1c(=O)c2c(ncn2C)n(C)c1=O` [Caffeine, reference compound], the Papp in “in vitro” was 1.47 ×10⁻⁶ cm/s.

As for `c1ccc(N2CCc3ccccc3C2)cc1` [Compound 1a, N-phenyl-1,2,3,4-tetrahydroisoquinoline], the IC50 on eqBuChE and at eeAChE (setting [6]) was more than 10 µM in each case. At eeAChE (1 × 10^−5 M, preincubation 6 min, incubation 6 min, 37 °C), the “Residual Activity at 1 × 10^−5 M AChE” value is “did not show inhibition potential”.

Turning to `CC(=O)CC1c2ccccc2CCN1c1ccccc1` (stereo not shown) [Compound 2a], the IC50 at eqBuChE and on eeAChE (setting [6]) was more than 10 µM in each case.

On to `CC(=O)CC1c2ccccc2CCN1c1ccc(F)cc1` (stereo not shown) [Compound 2b], for which the IC50 amounted to 8.9 ± 2.03 µM at eqBuChE and 5.46 ± 0.58 µM against eeAChE (setting [6]). Moreover, the “Selectivity Index for AChE” value at eeAChE was determined as 1.63.

For the compound `COc1cc2c(cc1OC)C(CC(C)=O)N(c1ccccc1)CC2` (stereo not shown) [Compound 2c], the IC50 was more than 10 µM at eqBuChE and 5.04 ± 0.28 µM on eeAChE (setting [6]).

On to `COc1cc2c(cc1OC)C(CC(C)=O)N(c1ccc(F)cc1)CC2` (stereo not shown) [Compound 2d], for which the IC50 on eqBuChE and on eeAChE (setting [6]) was more than 10 µM throughout.

Compound `CCC(=O)CC1c2cc(OC)c(OC)cc2CCN1c1ccccc1` (stereo not shown) [Compound 2e] yielded an IC50 on eeAChE (setting [6]) of more than 10 µM.

With `O=C(CC1c2ccccc2CCN1c1ccccc1)c1ccccc1` (stereo not shown) [Compound 3a], the figures for the IC50 at eqBuChE and at eeAChE (setting [6]) were 8.26 ± 1.05 µM and 4.29 ± 0.09 µM, respectively. The “Selectivity Index for AChE” value at eeAChE is reported as 1.93.

As to `COc1ccc(N2CCc3ccccc3C2CC(=O)c2ccccc2)cc1` (stereo not shown) [Compound 3b], the IC50 at eqBuChE is more than 10 µM; at eeAChE (setting [6]), 9.05 ± 0.81 µM.

Turning to `COc1cc2c(cc1OC)C(CC(=O)c1ccccc1)N(c1ccccc1)CC2` (stereo not shown) [Compound 3c], the IC50 on eqBuChE was more than 10 µM. In addition, in series [1], the chromatographic logP turned out to be 3.39. Also, at AChE [2], the “Type of Inhibition (AChE)” value is on record as “Non-competitive” and the Ki is 1.78 ± 0.1 µM. In addition, the “Quenching of Trp fluorescence of AChE” value on AChE [3] is recorded as “no quenching of Trp fluorescence”. In addition, the “Selectivity Index for AChE” value at eeAChE is more than 5. This compound yielded an IC50 at eeAChE (setting [6]) of 1.95 ± 0.23 µM. In addition, the “fold increase in inhibitory activity towards AChE” value at eeAChE (compared to compound 2c) turned out to be 2.5 fold. In the series “in vitro”, the Papp turned out to be 47.5 ×10⁻⁶ cm/s and the “PAMPA-BBB Permeability Pe” value is recorded as “successfully crossed the artificial blood−brain barrier; also recorded: able to cross the BBB”.

On to `COc1cc2c(cc1OC)C(CC(=O)c1ccccc1)N(c1ccc(F)cc1)CC2` (stereo not shown) [Compound 3d], for which the IC50 at eqBuChE is more than 10 µM; on eeAChE (setting [6]) it was 4.89 ± 0.15 µM. Moreover, the “fold lower inhibitory activity towards AChE” value at eeAChE (compared to unsubstituted 3c) is 2.5 fold.

On eeAChE (setting [6]), `COc1cc2c(cc1OC)C(CC(=O)c1ccccc1)N(c1ccc(C)cc1)CC2` (stereo not shown) [Compound 3e] gave an IC50 of more than 10 µM.

For `O=C(CCC1c2ccccc2CCN1c1ccccc1)c1ccccc1` (stereo not shown) [Compound 3f], the IC50 was found to be 6.28 ± 0.36 µM on eqBuChE and 2.42 ± 0.09 µM on eeAChE (setting [6]). In series [1], this compound returned a chromatographic logP of 3.66. Besides, the “Selectivity Index for AChE” value at eeAChE came to 2.59. Besides, the “PAMPA-BBB Permeability Pe” value in “in vitro” is reported as “impossible to be detected; also recorded: High hydrophobicity; it retained in the membrane”.

Turning to `COc1cc2c(cc1OC)C(CCC(=O)c1ccccc1)N(c1ccccc1)CC2` (stereo not shown) [Compound 3g], the IC50 at eqBuChE amounted to 8.01 ± 0.55 µM; on eeAChE (setting [6]), 6.78 ± 0.22 µM. In addition, at eeAChE, the “Selectivity Index for AChE” value is reported as 1.18.

In the case of `COc1cc2c(cc1OC)C(CCC(=O)c1ccccc1)N(c1ccc(F)cc1)CC2` (stereo not shown) [Compound 3h], the IC50 on eqBuChE and on eeAChE (setting [6]) was more than 10 µM each time.

Turning to `O=C(CCc1ccccc1)CCC1c2ccccc2CCN1c1ccccc1` (stereo not shown) [Compound 3i], on eqBuChE, the IC50 amounted to 2.72 ± 0.2 µM. In series [1], this compound yielded a chromatographic logP of 3.78. For the same compound, on AChE [2], the “Type of Inhibition (AChE)” value was “Non-competitive” and affinity was put at a Ki of 1.06 ± 0.01 µM. The “Effect on Trp fluorescence of BuChE” value on BuChE [4] was “fluorescence intensity of BuChE was increased”. In addition, on AChE [3], the “Quenching of Trp fluorescence of AChE” value was “quenching of Trp fluorescence was observed” and the “n (number of binding sites)” value turned out to be 0.94 ± 0.04. At AChE [3] (setting [7]), the Ksv result is “(6.96 ± 0.05) × 10^4 M^−1” and the “kq (bimolecular quenching constant)” value is reported as “(6.96 ± 0.05) × 10^14 M^−1s^−1”. In addition, the “Selectivity Index for AChE” value on eeAChE stood at 2.45. Also, the midpoint of inhibition at eeAChE (setting [6]), the IC50, lay at 1.11 ± 0.04 µM. In “in vitro”, the “PAMPA-BBB Permeability Pe” value is given as “impossible to be detected; also recorded: High hydrophobicity; it retained in the membrane”. Moreover, the “Type of Inhibition (BuChE)” value at BuChE [5] (Lineweaver-Burk plot) is “mixed type of inhibition (non-competitive/uncompetitive); also recorded: Mix non-competitive/uncompetitive”. At BuChE [5] (preincubation 6 min, incubation 2 min), this compound registered a Ki of 1.04 ± 0.1 µM.

On to `O=C(CCc1ccccc1)CCC1c2ccccc2CCN1c1ccc(F)cc1` (stereo not shown) [Compound 3j], for which the half-maximal inhibitory concentration (IC50) at eqBuChE is 4.52 ± 0.15 µM; at eeAChE (setting [6]), 2.91 ± 0.09 µM. Further, at eeAChE, the “Selectivity Index for AChE” value is on record as 1.55.

As to `COc1cc2c(cc1OC)C(CCC(=O)CCc1ccccc1)N(c1ccccc1)CC2` (stereo not shown) [Compound 3k], the figures for the IC50 at eqBuChE and on eeAChE (setting [6]) were more than 10 µM and 4.02 ± 0.19 µM, respectively.

Turning to `COc1cc2c(cc1OC)C(CCC(=O)CCc1ccccc1)N(c1ccc(F)cc1)CC2` (stereo not shown) [Compound 3l], the IC50 on eqBuChE and against eeAChE (setting [6]) was more than 10 µM each time.

Consider `N#CC1c2ccccc2CCN1c1ccccc1` (stereo not shown) [Compound 4a], for which the IC50 at eqBuChE and against eeAChE (setting [6]) was more than 10 µM throughout.

For the compound `COc1cc2c(cc1OC)C(C#N)N(c1ccc(F)cc1)CC2` (stereo not shown) [Compound 4b], the IC50 at eqBuChE and against eeAChE (setting [6]) was more than 10 µM throughout.

`COc1cc2c(cc1OC)C(C#N)N(c1ccc(C)cc1)CC2` (stereo not shown) [Compound 4c]: the IC50 at eqBuChE and at eeAChE (setting [6]) was more than 10 µM each time.

The record behind these values is paper PMC10816625, “Targeting Alzheimer’s Disease: Evaluating the Efficacy of C-1 Functionalized N-Aryl-Tetrahydroisoquinolines as Cholinergic Enzyme Inhibitors and Promising Therapeutic Candidates” (International Journal of Molecular Sciences, 2024).
